Converted amounts (≈) assume the structure as drawn. Read-outs that look alike come from different tables or passages of the source.
Key:
[1] = system: E. coli WT, WT-Pore, ΔTolC, ΔTolC-Pore; format: cell-based, Escherichia coli; conditions: E. coli
[2] = system: P. aeruginosa PAO1, PAO1-Pore, Δ3, Δ3-Pore; assay: Fold MIC change between P. aeruginosa strains (OM barrier, efflux); format: cell-based, Pseudomonas aeruginosa; conditions: for Fold MIC change, Efflux, PAO1-Pore/Δ3-Pore / Fold MIC change, Efflux, PAO1/Δ3 / Fold MIC change, OM barrier, PAO1/PAO1-Pore / Fold MIC change, OM barrier, Δ3/Δ3-Pore: P. aeruginosa
[3] = system: E. coli GD102 (ΔTolC); conditions: E. coli ΔTolC without pore; 0.1% arabinose; LB, 37° C., 16 h
Experimental: (§3) Susceptibilities of E. coli and P. aeruginosa cells to different classes of antibiotics were determined by two-fold broth dilution method [1] with following modifications. Cells were grown in Luria-Bertani (LB) broth (tryptone 10 g/L, yeast extract 5 g/L and NaCl 5 g/L) with appropriate selection markers as needed, at 37° C. with shaking at 200 rpm. When needed, at OD600˜0.3, either L-arabinose (final concentration 0.1%) or IPTG (final concentration 0.1 mM) were added to induce the expression of the pore and cells were further incubated until OD600 reached 1.0. MICs of various antimicrobial agents were measured in 96-well micro-titer plates. For this purpose, exponentially growing cells were inoculated at a density of 10^5 cells/ml into wells containing LB medium in the presence of two-fold increasing concentrations of drugs under investigation at constant inducer concentration of 0.1% arabinose for E. coli or 0.1 mM IPTG for P. aeruginosa strains. Cell growth was determined visually or using Spark 10M microplate reader (Tecan) after incubation of the micro-titer plates at 37° C. for 16 h.
(§4) For this purpose, induced cells were dispensed into 96-well microplates with LB medium containing two-fold dilutions of an antibiotic of interest and a respective concentration of an inducer.

[4] = system: E. coli ΔTolC-Pore (GKCW103, FhuAΔC/Δ4L pore); conditions: 0.1% arabinose, LB, 37° C., 16 h
Experimental: as §3, §4

[5] = system: P. aeruginosa PAO1Δ3 (Δ3); conditions: P. aeruginosa Δ3 without pore; 0.1 mM IPTG; LB, 37° C., 16 h
Experimental: as §3, §4

[6] = system: E. coli BW 25113 (WT); assay: microbe, parasite or virus in culture; conditions: Escherichia coli, 16 h, read-out: MIC BW 25113 (WT) —
Experimental: as §3, §4

[7] = system: E. coli WT-Pore (GKCW101, FhuAΔC/Δ4L pore); assay: microbe, parasite or virus in culture; conditions: Escherichia coli, 16 h, read-out: MIC BW 25113 (WT) Pore
Experimental: as §3, §4

[8] = system: P. aeruginosa PAO1; assay: microbe, parasite or virus in culture; conditions: Pseudomonas aeruginosa
Experimental: as §3, §4

[9] = system: P. aeruginosa Δ3-Pore (GKCW116, FhuAΔC/Δ4L pore); assay: MIC, two-fold broth dilution, P. aeruginosa Δ3-Pore; conditions: for MIC Δ3 Pore: P. aeruginosa Δ3-Pore, 0.1 mM IPTG, LB, 37° C., 16 h
Experimental: as §3, §4

[10] = system: P. aeruginosa PAO1, PAO1-Pore, Δ3, Δ3-Pore cells; assay: Azithromycin uptake into P. aeruginosa cells by LC-MS; conditions: 5 μM; 0.1 mM IPTG; LC-MS (FIG. 5C)
Experimental: For LC-MS analyses, P. aeruginosa cells were grown to stationary phase in 50 mM MOPS (pH 7.2) M9 minimal medium supplemented with 1% glycerol and trace ions at 37° C. Stationary phase cells were subcultured 1:100 for 16 hours in the same fresh medium at 37° C. After 16 hours, cultures were induced with 0.1 mM IPTG for 4 hours at 37° C. Cells were collected by centrifugation at room temperature and resuspended in PMG buffer at one-tenth the original culture volume. […] At appropriate time points, 100 μl of cells were removed and collected onto filter plates using a HTS Vacuum Manifold (EMD Millipore). Filters were dried overnight and extracted in a two-step process using 1) 800 μl of 100% HPLC grade methanol and 2) 200 μl of 80% HPLC methanol: 20% ultrapure water. […] For HPLC, two mobile phases (A—100% water, B—100% acetonitrile; both with 0.1% formic acid) were used with a step gradient of 20, 50 and 100% of B for 1, 4, and 11 min, respectively.

[11] = system: E. coli WT; assay: Vancomycin disc susceptibility assay, E. coli WT; format: cell-based; conditions: Escherichia coli, 100 μg vancomycin disc, read-out: Zone of clearance
Experimental: (§1) Vancomycin susceptibility spot assay. Indicated E. coli (A) and P. aeruginosa (B) strains were seeded onto LB agar plates, ˜10^8 cells per plate, with and without inducers 0.1% arabinose and 0.1 mM IPTG, respectively. […] Seeded plates were incubated overnight at 37° C. Large clearance zones can be clearly seen in the presence of inducers.

[12] = system: E. coli WT-Pore; assay: Vancomycin disc susceptibility assay, E. coli WT-Pore; format: cell-based; conditions: Escherichia coli, read-out: Zone of clearance, E. coli WT-Pore, 100 μg vancomycin disc
Experimental: as §1

[13] = system: E. coli ΔTolC; assay: Vancomycin disc susceptibility assay, E. coli ΔTolC; format: cell-based; conditions: Escherichia coli, read-out: Zone of clearance, E. coli ΔTolC, 100 μg vancomycin disc
Experimental: as §1

[14] = system: E. coli ΔTolC-Pore; assay: Vancomycin disc susceptibility assay, E. coli ΔTolC-Pore; format: cell-based; conditions: Escherichia coli, read-out: Zone of clearance, E. coli ΔTolC-Pore, 100 μg vancomycin disc
Experimental: (§2) Vancomycin susceptibility spot assay. […] […] Seeded plates were incubated overnight at 37° C. Large clearance zones can be clearly seen in the presence of inducers.

[15] = system: P. aeruginosa PAO1; assay: Vancomycin disc susceptibility assay, P. aeruginosa PAO1; format: cell-based; conditions: Pseudomonas aeruginosa, 200 μg vancomycin disc, read-out: Zone of clearance
Experimental: as §2

[16] = system: P. aeruginosa PAO1-Pore; assay: Vancomycin disc susceptibility assay, P. aeruginosa PAO1-Pore; format: cell-based; conditions: Pseudomonas aeruginosa, 200 μg vancomycin disc, read-out: Zone of clearance
Experimental: as §1

[17] = system: P. aeruginosa Δ3; assay: Vancomycin disc susceptibility assay, P. aeruginosa Δ3; format: cell-based; conditions: Pseudomonas aeruginosa, 200 μg vancomycin disc, read-out: Zone of clearance
Experimental: as §1

[18] = system: P. aeruginosa Δ3-Pore; assay: Vancomycin disc susceptibility assay, P. aeruginosa Δ3-Pore; format: cell-based; conditions: Pseudomonas aeruginosa, 200 μg vancomycin disc, read-out: Zone of clearance
Experimental: as §1

[19] = PAO1, 16 h, read-out: MIC PAO1 —

CC[C@H]1OC(=O)[C@H](C)[C@@H](O[C@H]2C[C@@](C)(OC)[C@@H](O)[C@H](C)O2)[C@H](C)[C@@H](O[C@@H]2O[C@H](C)C[C@H](N(C)C)[C@H]2O)[C@](C)(O)C[C@@H](C)CN(C)[C@H](C)[C@@H](O)[C@]1(C)O [Azithromycin]
Fold MIC change, Efflux, WT-Pore/ΔTolC-Pore [1]: 16 fold | Fold MIC change, Efflux, WT/ΔTolC [1]: 4 fold | Fold MIC change, OM barrier, WT/WT-Pore [1]: 4 fold | Fold MIC change, OM barrier, ΔTolC/ΔTolC-Pore [1]: 16 fold | Decrease of MIC from PAO1 cells to induced Δ3-Pore cells ([2]; FIG. 5B): more than 2000 fold | Drop in MIC in PAO1-Pore cells with increasing inducer ([2]; IPTG (FIG. 5)): 32 fold | Drop in MIC in Δ3-Pore cells with increasing inducer ([2]; IPTG (FIG. 5)): 64 fold | Fold MIC change, Efflux, PAO1-Pore/Δ3-Pore [2]: 64 fold | Fold MIC change, Efflux, PAO1/Δ3 [2]: 32 fold | Fold MIC change, OM barrier, PAO1/PAO1-Pore [2]: 32 fold | Fold MIC change, OM barrier, Δ3/Δ3-Pore [2]: 64 fold | MIC GD102 (ΔTolC) — [3]: 0.5 µg/mL (≈ 0.668 µM) | MIC GD102 (ΔTolC) Pore [4]: 0.031 µg/mL (≈ 0.0414 µM) | MIC Δ3 — [5]: 4 µg/mL (≈ 5.34 µM) | MIC [6]: 2 µg/mL (≈ 2.67 µM) | MIC [7]: 0.5 µg/mL (≈ 0.668 µM) | MIC [8, 19]: 128 µg/mL | MIC ([8]; PAO1, read-out: MIC in P. aeruginosa PAO1 cells): 171 µM | MIC Δ3 Pore [9]: 0.063 µg/mL (≈ 0.0841 µM) | MIC in P. aeruginosa Δ3-Pore cells ([9]; induced, plateau with increasing IPTG (FIG. 5)): 0.083 µM (≈ 0.0622 µg/mL) | Accumulation of azithromycin in permeabilized PAO1-Pore and Δ3-Pore cells [10]: significantly higher than PAO1 and Δ3 cells

CN[C@H](CC(C)C)C(=O)N[C@H]1C(=O)N[C@@H](CC(N)=O)C(=O)N[C@H]2C(=O)N[C@H]3C(=O)N[C@H](C(=O)N[C@H](C(=O)O)c4cc(O)cc(O)c4-c4cc3ccc4O)[C@H](O)c3ccc(c(Cl)c3)Oc3cc2cc(c3O[C@@H]2O[C@H](CO)[C@@H](O)[C@H](O)[C@H]2O[C@H]2C[C@](C)(N)[C@H](O)[C@H](C)O2)Oc2ccc(cc2Cl)[C@H]1O [Vancomycin]
Fold MIC change, Efflux, WT-Pore/ΔTolC-Pore [1]: 2 fold | Fold MIC change, Efflux, WT/ΔTolC [1]: 0.5 fold | Fold MIC change, OM barrier, WT/WT-Pore [1]: 16 fold | Fold MIC change, OM barrier, ΔTolC/ΔTolC-Pore [1]: 64 fold | Fold MIC change, Efflux, PAO1-Pore/Δ3-Pore [2]: 2 fold | Fold MIC change, Efflux, PAO1/Δ3 [2]: 2 fold | Fold MIC change, OM barrier, PAO1/PAO1-Pore [2]: 16 fold | Fold MIC change, OM barrier, Δ3/Δ3-Pore [2]: 16 fold | zone of inhibition at 100 µg/disc ([11]; Arabinose (0.1%)): 6 mm | zone of inhibition at 100 µg/disc ([11]; IPTG (0.1 mM)): 6 mm | zone of inhibition at 100 µg/disc ([11]; No inducer): 5 mm | zone of inhibition at 100 µg/disc ([12]; Arabinose (0.1%)): 16 mm | zone of inhibition at 100 µg/disc ([12]; IPTG (0.1 mM)): 11 mm | zone of inhibition at 100 µg/disc ([12]; No inducer): 8 mm | zone of inhibition at 100 µg/disc ([13]; Arabinose (0.1%)): 6 mm | zone of inhibition at 100 µg/disc ([13]; IPTG (0.1 mM)): 5 mm | zone of inhibition at 100 µg/disc ([13]; No inducer): 5 mm | zone of inhibition at 100 µg/disc ([14]; Arabinose (0.1%)): 15 mm | zone of inhibition at 100 µg/disc ([14]; IPTG (0.1 mM)): 16 mm | zone of inhibition at 100 µg/disc ([14]; No inducer): 7 mm | zone of inhibition at 200 µg/disc ([15]; Arabinose (0.1%)): 12 mm | zone of inhibition at 200 µg/disc ([15]; IPTG (0.1 mM)): 10 mm | zone of inhibition at 200 µg/disc ([15]; No inducer): 11 mm | zone of inhibition at 200 µg/disc ([16]; Arabinose (0.1%)): 21 mm | zone of inhibition at 200 µg/disc ([16]; IPTG (0.1 mM)): 19 mm | zone of inhibition at 200 µg/disc ([17]; Arabinose (0.1%)): 12 mm | zone of inhibition at 200 µg/disc ([17]; IPTG (0.1 mM)): 9 mm | zone of inhibition at 200 µg/disc ([17]; No inducer): 10 mm | zone of inhibition at 200 µg/disc ([18]; Arabinose (0.1%)): 22 mm | zone of inhibition at 200 µg/disc ([18]; IPTG (0.1 mM)): 18 mm | zone of inhibition at 200 µg/disc ([18]; No inducer): 12 mm | MIC GD102 (ΔTolC) — [3]: 256 µg/mL (≈ 177 µM) | MIC GD102 (ΔTolC) Pore [4]: 4 µg/mL (≈ 2.76 µM) | MIC Δ3 — [5]: 1024 µg/mL (≈ 707 µM) | MIC [6]: 128 µg/mL (≈ 88.3 µM) | MIC [7]: 8 µg/mL (≈ 5.52 µM) | MIC [8, 19]: 2050 µg/mL | MIC Δ3 Pore [9]: 64 µg/mL (≈ 44.2 µM)

Reference: patent US20160280743A1, “BACTERIAL MUTANTS AND METHODS OF USE” (priority 2015, published 2016)
